Experiments:
mouse TRPV3 = target: T1, mouse TRPV3 (Mus musculus, UniProt Q8K424); assay: Voltage-step whole-cell recording of TRPV3 currents (40 μM 2-APB) in HEK 293T cells; format: cell-based; parameters: expressed in transfected cells; host or cells: HEK 293T; details: steps –160 to +180 mV, dyclonine 10, 30 μM, RR 10 μM
T1 sequence (Q8K424 1-791): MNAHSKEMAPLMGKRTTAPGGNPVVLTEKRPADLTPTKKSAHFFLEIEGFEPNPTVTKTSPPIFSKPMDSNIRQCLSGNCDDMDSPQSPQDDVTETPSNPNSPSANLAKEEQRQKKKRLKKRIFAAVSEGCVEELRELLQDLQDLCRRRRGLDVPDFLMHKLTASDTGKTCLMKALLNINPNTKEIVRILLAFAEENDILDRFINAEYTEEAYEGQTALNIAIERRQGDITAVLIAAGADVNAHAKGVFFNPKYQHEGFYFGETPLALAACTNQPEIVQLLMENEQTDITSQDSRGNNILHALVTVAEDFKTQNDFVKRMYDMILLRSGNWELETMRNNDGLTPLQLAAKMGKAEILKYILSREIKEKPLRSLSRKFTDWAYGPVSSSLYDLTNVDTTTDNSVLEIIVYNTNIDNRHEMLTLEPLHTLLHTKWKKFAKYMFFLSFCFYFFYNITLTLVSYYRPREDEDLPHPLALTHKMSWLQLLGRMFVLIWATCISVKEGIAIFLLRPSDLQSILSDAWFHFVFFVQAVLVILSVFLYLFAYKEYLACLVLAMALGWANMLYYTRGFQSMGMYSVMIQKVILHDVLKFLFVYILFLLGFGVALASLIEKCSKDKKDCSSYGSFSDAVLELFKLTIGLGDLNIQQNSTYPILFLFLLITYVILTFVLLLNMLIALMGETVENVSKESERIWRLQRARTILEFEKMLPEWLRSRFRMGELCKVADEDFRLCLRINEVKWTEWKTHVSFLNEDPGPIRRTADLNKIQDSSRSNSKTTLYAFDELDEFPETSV
Text: (§1) Conventional whole-cell and excised patch-clamp recording methods were used. For the recombinant expressing system, green fluorescent EGFP was used as a surface marker for gene expression. Recording pipettes were pulled from borosilicate glass capillaries (World Precision Instruments) and fire-polished to a resistance between 2 and 4 MΩ when filled with internal solution containing (in mM) 140 CsCl, 2.0 MgCl2, 5 EGTA, and 10 HEPES, pH 7.4 (adjusted with CsOH). Bath solution contained (in mM): 140 NaCl, 5 KCl, 3 EGTA, and 10 HEPES, pH 7.4 adjusted with NaOH. For recordings in keratinocytes, the bath saline consisted of (in mM) 140 NaCl, 5 KCl, 2 MgCl2, 2 CaCl2, 10 glucoses, and 10 HEPES, pH 7.4 adjusted with NaOH, and the pipette solution contained (in mM) 140 CsCl, 5 EGTA, and 10 HEPES, pH 7.3 adjusted with CsOH. […] For a subset of recordings, currents were amplified using an Axopatch 200B amplifier (Molecular Devices, Sunnyvale, CA) and recorded through a BNC-2090/MIO acquisition system (National Instruments, Austin, TX) using QStudio developed by Dr. Feng Qin at State University of New York at Buffalo. […] As determined by the conductance tests, the solution around a patch under study was fully controlled by the application of a flow rate of 100 μl/min or greater. […]

TRPV3 = target: T2, TRPV3 (Mus musculus, UniProt Q8K424); assay: Heat-activated TRPV3 currents (infrared laser temperature jump) in HEK 293T cells; format: cell-based
T2 construct: expressed in transfected cells; host or cells: HEK 293T
T2 sequence (Q8K424 1-791): T1 sequence (Q8K424 1-791)
Text: as §1, with “NaOH.” for “NaOH. For recordings in keratinocytes, the bath saline consisted of (in mM) 140 NaCl, 5 KCl, 2 MgCl2, 2 CaCl2, 10 glucoses, and 10 HEPES, pH 7.4 adjusted with NaOH, and the pipette solution contained (in mM) 140 CsCl, 5 EGTA, and 10 HEPES, pH 7.3 adjusted with CsOH.”
Constant temperature steps were generated by irradiating the tip of an open pipette and using the current of the electrode as the readout for feedback control. […]

Hill coefficient nH (TRPV3): 1.9 ± 0.54
Structure (SMILES): CCCCOc1ccc(C(=O)CCN2CCCCC2)cc1 [dyclonine]
effect on TRPV3-mediated inward and outward currents (voltage dependence) (mouse TRPV3): the inhibition occurred independently of the membrane potential

Reference: publication PMC8112869, “Therapeutic inhibition of keratinocyte TRPV3 sensory channel by local anesthetic dyclonine” (eLife, 2021)
